Laboratory results from publication PMC6015222, “Targeting Phosphopeptide Recognition by the Human BRCA1 Tandem BRCT Domain to Interrupt BRCA1-Dependent Signaling” (Cell Chemical Biology, 2018).
“Also recorded” adds a separate entry of the source.

Test system: BRCA1 foci
Assay: Radiation-induced nuclear BRCA1 foci, high-content imaging, HEK293 cells
Format: cell-based, human
Conditions: 100 μM added 6 hr after 16 Gy, staining 18 hr after irradiation
Procedure: HEK293 cells stably harboring plasmids for Tet-inducible expression of tBRCT domains were seeded at 30,000 cells/well on Matrigel-coated 96-well plates, and treated as indicated. Cells were fixed in 2.5% PFA, for 20’ at RT and incubated in 1x PBS with 10% FBS plus 0.5% TritonX-100 for 1 h for blocking and permeabilization. Primary antibody staining was performed at the indicated dilutions in PBST-BSA buffer (0.7mg/ml BSA, 0.05% Tween-20 in 1XPBS) for 1h at RT. Cells were then extensively washed in PBST-BSA buffer and stained with goat-anti-mouse Alexa 488 secondary antibody (Invitrogen), at 1:1000 dilution along with 2.5μg/ml DAPI for nuclear staining. […] Images were acquired on a high-content imaging platform (Cellomics ArrayScan VTI HCS Reader (Thermo Fisher Scientific)) using a 40x objective. On average ∼800 fields from 6-well replicates, containing a total of ∼10-20K cells were imaged per treatment group and quantified using image analysis software (in-house algorithms using MatLab and commercially available HCS studio 2.0 from Thermo Fisher Scientific). […] Cut-off values for foci number per cell specifying the maximal difference between control and irradiated samples were determined to calculate the percentage of cells positive for radiation-induced foci. […]

O=C(c1ccc2nc(-c3ccccc3)[nH]c2c1)N1CCN(Cc2ccccc2F)CC1 [Bractoppin, (4-(2-fluorobenzyl)piperazin-1-yl) (2-phenyl-1H-benzo[d]imidazol-6-yl) methanone]
effect on formation of radiation-induced BRCA1 foci: inhibits the formation of radiation-induced BRCA1 foci; also recorded: selectively inhibits damage-induced BRCA1 foci formation
